Key:
GLP-1R = details: GLP-1R, less potent than the endogenous hormone, factor; cited from earlier work
Source text: (§1) The most successful treatments currently available include glucagon-like peptide-1 (GLP-1) receptor agonists (GLP-1RAs), exemplified by semaglutide (approved in 2017, $19.9 billion sales in 2023)[3] and tirzepatide (approved in 2022, $5.3 billion sales in 2023)[4].

GIPR = details: GIPR, more potent than the endogenous hormone by this factor; cited from earlier work
Source text: as §1

GCGR [1] = details: less potent than the endogenous hormone; cited from earlier work
Source text: as §1

GIPR mutants [2] = target: T1, GIPR mutants (Homo sapiens, UniProt P48546, R196Y); test: cAMP accumulation, single-point mutated GIPR; assay type: cell-based; details: GIPR R196(ECL1)Y
T1 construct: expressed in transfected cells; host or cells: HEK-293T
T1 sequence (P48546 22-466 R196Y): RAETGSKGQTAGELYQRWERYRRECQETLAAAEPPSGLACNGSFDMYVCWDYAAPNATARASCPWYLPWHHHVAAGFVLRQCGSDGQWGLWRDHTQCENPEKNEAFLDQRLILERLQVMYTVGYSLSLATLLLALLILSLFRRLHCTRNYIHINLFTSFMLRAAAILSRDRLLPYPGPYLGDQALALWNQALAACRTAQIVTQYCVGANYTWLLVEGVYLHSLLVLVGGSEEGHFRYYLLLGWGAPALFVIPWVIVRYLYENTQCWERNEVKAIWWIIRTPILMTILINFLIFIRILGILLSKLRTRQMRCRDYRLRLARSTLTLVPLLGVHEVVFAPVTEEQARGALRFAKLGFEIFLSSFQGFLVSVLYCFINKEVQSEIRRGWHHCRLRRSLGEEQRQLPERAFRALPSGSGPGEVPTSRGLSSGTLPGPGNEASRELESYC
Method: (§2) HEK-293T cells were maintained at 37°C in 5% CO2 incubator and seeded onto 6-well cell […]
(§3) culture plates before transfection. After overnight culture, the cells were transiently transfected […]
(§4) with various constructs using Lipofectamine 2000 transfection reagent (Invitrogen). After 24 h, […]
(§5) the transfected cells were seeded onto 384-microtiter plates at a density of 3,000 cells per well […]
(§6) in stimulation buffer (HBSS supplemented with 5 mM HEPES, 0.1% (w/v) casein and 0.5 mM […]
(§7) 3-isobutyl-1-methylxanthine). Different concentrations of retatrutide in stimulation buffer were […]
(§8) added, and the stimulation lasted for 40 min. The reaction was stopped by addition of cAMP […]
(§9) detection buffer containing Eu-cAMP tracer and ULight-anti-cAMP. Plates were then incubated for […]
(§10) 60 min at RT. Time-resolved FRET signals were measured at 620 nm and 665 nm, respectively, by […]
(§11) an EnVision multilabel plate reader (PerkinElmer). Data were analyzed in GraphPad PRISM 9.5 […]
(§12) and all values were normalized to that of the wild-type (WT).
(§13) Supplementary Fig. 5 Effects of receptor mutation on retatrutide-induced cAMP […]
(§14) accumulation. a-c, Signaling profiles of GLP-1R (a), GIPR (b) and GCGR (c) mutants. cAMP […]
(§15) accumulation was measured in wild-type (WT) and single-point mutated GLP-1R, GIPR or […]
(§16) GCGR expressing HEK-293T cells. cAMP levels were normalized to the maximum response […]
(§17) of the WT and dose-response curves were analyzed using a three-parameter logistic equation.
(§18) Data were generated and graphed as means ± S.E.M. of at least three independent experiments performed in quadruplicate.
(§19) (1 picture or pasted object on this page, not shown here)
(§20) Supplementary Ta b l e S 5 Effects of the ligand-binding pocket residue mutation on retatrutide- […]
(§21) induced cAMP signaling at GLP-1R, GIPR or GCGR. […]
(§22) cAMP levels were normalized to the maximum response of the wild-type (WT) and dose-response […]
(§23) curves were analyzed using a three-parameter logistic equation to obtain pEC50 and Emax values. The […]
(§24) experiments were carried out independently at least three times. Data shown are means ± S.E.M. One- […]
(§25) way ANOVA was used to determine statistical difference. N.D., values that could not be determined due […]
(§26) to incomplete curve fits. *P< 0.05, **P< 0.01, ***P< 0.001 and ****P<0.0001.

GIPR mutants [3] = target: T2, GIPR mutants (Homo sapiens, UniProt P48546, Y36A); test: cAMP accumulation, single-point mutated GIPR; assay type: cell-based; details: GIPR Y36(ECD)A; HEK-293T, 40 min, TR-FRET; mean ± S.E.M., n at least 3
T2 construct: expressed in transfected cells; host or cells: HEK-293T
Method: as §2, §3, §4, §5, §6, §7, §8, §9, §10, §11, §12, §13, §14, §15, §16, §17, §18, §19, §20, §21, §22, §23, §24, §25, §26

GIPR mutants [4] = target: T3, GIPR mutants (Homo sapiens, UniProt P48546, E354A); test: cAMP accumulation, single-point mutated GIPR; assay type: cell-based; details: GIPR E354(6.53b)A; HEK-293T, 40 min, TR-FRET; mean ± S.E.M., n at least 3
T3 construct: expressed in transfected cells; host or cells: HEK-293T
Method: as §2, §3, §4, §5, §6, §7, §8, §9, §10, §11, §12, §13, §14, §15, §16, §17, §18, §19, §20, §21, §22, §23, §24, §25, §26

GIPR mutants [5] = target: T4, GIPR mutants (Homo sapiens, UniProt P48546, E288T); test: cAMP accumulation, single-point mutated GIPR; assay type: cell-based; details: GIPR E288(45.52b)T, HEK-293T, 40 min, TR-FRET, mean ± S.E.M., n at least 3
T4 construct: expressed in transfected cells; host or cells: HEK-293T
Method: as §2, §3, §4, §5, §6, §7, §8, §9, §10, §11, §12, §13, §14, §15, §16, §17, §18, §19, §20, §21, §22, §23, §24, §25, §26

GIPR mutants [6] = target: T5, GIPR mutants (Homo sapiens, UniProt P48546, F127A); test: cAMP accumulation, single-point mutated GIPR; assay type: cell-based; details: GIPR F127(1.29b)A; HEK-293T, 40 min, TR-FRET; mean ± S.E.M., n at least 3
T5 construct: expressed in transfected cells; host or cells: HEK-293T
Method: as §2, §3, §4, §5, §6, §7, §8, §9, §10, §11, §12, §13, §14, §15, §16, §17, §18, §19, §20, §21, §22, §23, §24, §25, §26

GIPR mutants [7] = target: T6, GIPR mutants (Homo sapiens, UniProt P48546, W209A); test: cAMP accumulation, single-point mutated GIPR; assay type: cell-based; details: GIPR W209(ECL1)A; HEK-293T, 40 min, TR-FRET; mean ± S.E.M., n at least 3
T6 construct: expressed in transfected cells; host or cells: HEK-293T
Method: as §2, §3, §4, §5, §6, §7, §8, §9, §10, §11, §12, §13, §14, §15, §16, §17, §18, §19, §20, §21, §22, §23, §24, §25, §26

GIPR mutants [8] = target: T7, GIPR mutants (Homo sapiens, UniProt P48546, P195K); test: cAMP accumulation, single-point mutated GIPR; assay type: cell-based; details: GIPR P195(2.72b)K, relative to WT; pEC50 and Emax N.D. (incomplete curve fits)
T7 construct: expressed in transfected cells; host or cells: HEK-293T
Method: as §2, §3, §4, §5, §6, §7, §8, §9, §10, §11, §12, §13, §14, §15, §16, §17, §18, §19, §20, §21, §22, §23, §24, §25, §26

GCGR [9] = target: T8, GCGR (Homo sapiens, UniProt P47871); test: cAMP accumulation, wild-type GCGR; assay type: cell-based; details: HEK-293T, 40 min, TR-FRET, mean ± S.E.M.
T8 construct: expressed in transfected cells; host or cells: HEK-293T
Method: as §2, §3, §4, §5, §6, §7, §8, §9, §10, §11
and all values were normalized to that of the wild-type (WT). […]
as §15
of the WT and dose-response curves were analyzed using a three-parameter logistic equation. […]
curves were analyzed using a three-parameter logistic equation to obtain pEC50 and Emax values. […]
as §25

T3 sequence (P48546 22-466 E354A): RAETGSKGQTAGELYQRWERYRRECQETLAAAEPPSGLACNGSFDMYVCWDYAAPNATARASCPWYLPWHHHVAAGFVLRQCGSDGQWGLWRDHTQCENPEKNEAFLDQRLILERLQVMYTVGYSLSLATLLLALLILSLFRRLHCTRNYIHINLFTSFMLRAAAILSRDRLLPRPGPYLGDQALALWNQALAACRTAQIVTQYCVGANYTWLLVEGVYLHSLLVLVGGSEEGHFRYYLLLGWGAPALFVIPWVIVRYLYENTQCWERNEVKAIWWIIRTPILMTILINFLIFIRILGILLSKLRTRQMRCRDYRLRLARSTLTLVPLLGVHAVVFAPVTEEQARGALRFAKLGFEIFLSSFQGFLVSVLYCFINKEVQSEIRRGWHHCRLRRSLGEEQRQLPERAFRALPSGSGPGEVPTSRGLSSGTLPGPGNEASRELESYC
T2 sequence (P48546 22-466 Y36A): as the sequence (P48546 22-466 E354A) above, with Y15A, A333E counted along it
T4 sequence (P48546 22-466 E288T): as the sequence (P48546 22-466 E354A) above, with E267T, A333E counted along it
T6 sequence (P48546 22-466 W209A): as the sequence (P48546 22-466 E354A) above, with W188A, A333E counted along it
T5 sequence (P48546 22-466 F127A): as the sequence (P48546 22-466 E354A) above, with F106A, A333E counted along it
T8 sequence (P47871 26-477): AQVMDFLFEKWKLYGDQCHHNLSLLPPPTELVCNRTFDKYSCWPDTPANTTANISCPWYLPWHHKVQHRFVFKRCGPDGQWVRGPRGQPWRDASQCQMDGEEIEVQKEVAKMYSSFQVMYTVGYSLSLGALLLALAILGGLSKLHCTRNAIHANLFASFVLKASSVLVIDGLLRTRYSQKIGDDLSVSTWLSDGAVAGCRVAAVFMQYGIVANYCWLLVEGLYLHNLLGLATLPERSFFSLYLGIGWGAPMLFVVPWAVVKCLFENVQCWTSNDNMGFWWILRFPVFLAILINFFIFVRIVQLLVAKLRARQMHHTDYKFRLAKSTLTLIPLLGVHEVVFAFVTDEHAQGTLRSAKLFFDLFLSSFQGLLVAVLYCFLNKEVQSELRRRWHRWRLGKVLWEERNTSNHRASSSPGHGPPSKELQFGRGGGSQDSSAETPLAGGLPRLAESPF
T7 sequence (P48546 22-466 P195K): as the sequence (P48546 22-466 E354A) above, with P174K, A333E counted along it

## CC[C@H](C)[C@H](NC(=O)[C@H](Cc1ccccc1)NC(=O)[C@H](C)NC(=O)C(C)(C)NC(=O)[C@H](CCC(N)=O)NC(=O)[C@H](C)NC(=O)[C@H](CCCCNC(=O)COCCOCCNC(=O)CC[C@H](NC(=O)CCCCCCCCCCCCCCCCCCC(=O)O)C(=O)O)NC(=O)[C@H](CCCCN)NC(=O)[C@H](CC(=O)O)NC(=O)[C@H](CC(C)C)NC(=O)[C@](C)(CC(C)C)NC(=O)[C@@H](NC(=O)[C@H](CO)NC(=O)[C@H](Cc1ccc(O)cc1)NC(=O)[C@H](CC(=O)O)NC(=O)[C@H](CO)NC(=O)[C@@H](NC(=O)[C@H](Cc1ccccc1)NC(=O)[C@@H](NC(=O)CNC(=O)[C@H](CCC(N)=O)NC(=O)C(C)(C)NC(=O)[C@@H](N)Cc1ccc(O)cc1)[C@@H](C)O)[C@@H](C)O)[C@@H](C)CC)C(=O)N[C@@H](CCC(=O)O)C(=O)N[C@@H](Cc1ccc(O)cc1)C(=O)N[C@@H](CC(C)C)C(=O)N[C@@H](CC(C)C)C(=O)N[C@@H](CCC(=O)O)C(=O)NCC(=O)NCC(=O)N1CCC[C@H]1C(=O)N[C@@H](CO)C(=O)N[C@@H](CO)C(=O)NCC(=O)N[C@@H](C)C(=O)N1CCC[C@H]1C(=O)N1CCC[C@H]1C(=O)N1CCC[C@H]1C(=O)N[C@@H](CO)C(N)=O [retatrutide]
GLP-1R
  potency factor compared to endogenous hormone: 0.4
GIPR
  potency factor compared to endogenous hormone: 8.9
GCGR [1]
  potency factor compared to endogenous hormone: 0.3
GIPR mutants [2]; relative to WT
  decrease of retatrutide potency by mutation: 107.7 fold
GIPR mutants [2]; HEK-293T, 40 min, TR-FRET, mean ± S.E.M., n at least 3
  Emax ± S.E.M. (% WT): 92.16 ± 5.36 % WT
GIPR mutants [2]; HEK-293T, 40 min, TR-FRET, mean ± S.E.M., n at least 3, ****P < 0.0001
  EC50: 245 pM
GIPR mutants [3]
  EC50: 3.09 pM
  Emax ± S.E.M. (% WT): 99.10 ± 3.86 % WT
GIPR mutants [4]
  EC50: 5.89 pM
  Emax ± S.E.M. (% WT): 99.43 ± 4.28 % WT
GIPR mutants [5]
  Emax ± S.E.M. (% WT): 100.81 ± 2.93 % WT
GIPR mutants [5]; **P < 0.01
  EC50: 8.91 pM
GIPR mutants [6]
  EC50: 4.17 pM
  Emax ± S.E.M. (% WT): 99.67 ± 4.00 % WT
GIPR mutants [7]
  EC50: 2 pM
  Emax ± S.E.M. (% WT): 100.17 ± 3.21 % WT
GIPR mutants [8]
  change of GIPR-mediated cAMP accumulation by mutation: markedly decreased
GCGR [9]; GCGR WT, at least 3 independent experiments in quadruplicate
  EC50: 7.08 pM
GCGR [9]; n at least 3
  Emax ± S.E.M. (% WT): 100.00 ± 1.46 % WT

From paper PMC11255275, “Structural insights into the triple agonism at GLP-1R, GIPR and GCGR manifested by retatrutide” (Cell Discovery, 2024)
